Assay results taken from patent US20100292214A1, “Compounds with Antiparasitic Activity, Applications thereof to the Treatment of Infectious Diseases Caused by Apicomplexans” (commissariat a l'Energie Atomique, priority 2007, published 2010).
Where two headings read alike, the source gives them in different places.

Assays:
[1] = system: asynchronous 3D7 chloroquine-sensitive P. falciparum infected red blood cells; test: Labeled hypoxanthine incorporation assay (in vitro anti-malarial activity); format: cell-based; conditions: Plasmodium falciparum, 3D7, Erythrocyte, read-out: IC50 assessed on Plasmodium Falciparum
[2] = system: Toxoplasma gondii RH-β1 strain; test: microbe, parasite or virus in culture; format: cell-based; conditions: Toxoplasma gondii, read-out: IC50 assessed on Toxoplama Gondii
[3] = 3D7 chloroquine-sensitive strain, infected RBC, 48 h contact, [3H]-hypoxanthine incorporation, two independent experiments in duplicates

Structure (SMILES) | IC50 [1, 3] | IC50 [2] | IC50 [1]
C[C@@H](COC(=O)N1CCC(N(c2ccccc2)S(=O)(=O)c2cccs2)CC1)N(Cc1ccccc1)Cc1ccccc1 [Compound 159, (S)-2-(dibenzylamino)propyl 4-(N-phenylthiophen-2-ylsulfonamido)piperidine-1-carboxylate] | 861 nM | 1000 nM | –
C[C@@H](COC(=O)N1CCC(N(c2ccccc2)S(=O)(=O)c2cccc3cccnc23)CC1)N(Cc1ccccc1)Cc1ccccc1 [Compound 160, (S)-2-(dibenzylamino)propyl 4-(N-phenylquinolin-8-ylsulfonamido)piperidine-1-carboxylate] | 1060 nM | 2700 nM | –
C[C@@H](COC(=O)N1CCC(N(C(=S)Nc2ccccc2)c2ccccc2)CC1)N(Cc1ccccc1)Cc1ccccc1 [Compound 165, (S)-2-(dibenzylamino)propyl 4-(1,3-diphenylthioureido)piperidine-1-carboxylate] | 1250 nM | 3000 nM | –
Cc1ccccc1S(=O)(=O)N(c1ccccc1)C1CCN(C(=O)OC[C@H](C)N(Cc2ccccc2)Cc2ccccc2)CC1 [Compound 167, (S)-2-(dibenzylamino)propyl 4-(N-phenyl-2-methylphenylsulfonamido)piperidine-1-carboxylate] | 338 nM | 3900 nM | –
Cc1cccc(S(=O)(=O)N(c2ccccc2)C2CCN(C(=O)OC[C@H](C)N(Cc3ccccc3)Cc3ccccc3)CC2)c1 [Compound 168, (S)-2-(dibenzylamino)propyl 4-(N-phenyl-3-methylphenylsulfonamido)piperidine-1-carboxylate] | 483 nM | 2900 nM | –
C[C@@H](COC(=O)N1CCC(N(c2ccccc2)S(=O)(=O)c2cccc(C(F)(F)F)c2)CC1)N(Cc1ccccc1)Cc1ccccc1 [Compound 169, (S)-2-(dibenzylamino)propyl 4-(N-phenyl-3-(trifluoromethyl)phenylsulfonamido)piperidine-1-carboxylate] | 553 nM | 3200 nM | –
C[C@@H](COC(=O)N1CCC(N(c2ccccc2)S(=O)(=O)c2cccc3c(N(C)C)cccc23)CC1)N(Cc1ccccc1)Cc1ccccc1 [Compound 172, (S)-2-(dibenzylamino)propyl 4-(N-phenyl-(5-dimethylamino)naphthalen-1-ylsulfonamido)piperidine-1-carboxylate] | 314 nM | 212 nM | –
Oc1cc(Cl)ccc1Oc1ccc(Cl)cc1Cl [Triclosan, reference compound] | – | 320 nM | 1550 nM
